Values quoted from earlier work as cited in patent US6451357B1, “Method for purification of aloesin” (Unigen Pharmaceuticals, Inc., priority 2001, dated 2002).

Experiments:
tyrosinase [1] = settings: Lineweaver Burk diagram
tyrosinase [2] = settings: in vitro
[3] = tested on: de-pigmentation of the skin; settings: relative to hydroquinone

type of tyrosinase inhibition (tyrosinase [1]) | tyrosinase inhibition in words (tyrosinase [2]) | IC50 (tyrosinase [2]; substrate L-DOPA, read-out: concentration capable of 50% inhibition of tyrosinase activity) | Structure (SMILES) | quantity required to achieve a similar effect compared to the quantity of hydroquinone used [3]
non-competitive inhibitor | – | – | COc1cc(/C=C/C(=O)O[C@@H]2[C@@H](O)[C@H](O)[C@@H](CO)O[C@H]2c2c(O)cc(C)c3c(=O)cc(CC(C)=O)oc23)ccc1O [2″-feruloylaloesin, 2″-O-feruloylaloesin] | –
competitive inhibitor | strong inhibitor | 200 µM | CC(=O)Cc1cc(=O)c2c(C)cc(O)c([C@@H]3O[C@H](CO)[C@@H](O)[C@H](O)[C@H]3O)c2o1 [aloesin] | –
– | – | – | OC[C@H]1O[C@@H](Oc2ccc(O)cc2)[C@H](O)[C@@H](O)[C@@H]1O [arbutin] | over 100 times
– | – | – | O=C1O[C@H]([C@@H](O)CO)C(O)=C1O [ascorbic acid] | 17 times
